Test results taken from patent US20070112018A1, “Treatment of peripheral arterial occlusive disease” (priority 2005, published 2007).
In brackets after ≈: the same amount, converted by molar mass. Read-outs that look alike come from different tables or passages of the source.

Experiments:
[1] = Phase 1 Study ABI-1648-009, food effect on PK of single 25-mg oral dose
[2] = Placebo-controlled study of 30 mg and 100 mg in healthy volunteers, adverse events; type: in vivo, human
Protocol: In a placebo-controlled study of 30 mg and 100 mg in […], […] received the 30 mg dose of rifalazil. Sixty-two percent of patients (5/8) reported AEs while 33% of placebo subjects (3/9) reported AEs. The only AE of note reported in this rifalazil dose group was headache (38%, […]) compared to the placebo-treated group (11%, 1/9 subjects). […] However, this baseline value was not considered clinically significant nor were subsequent nadir values obtained on Days 3 and 7 (3.8×10^3 cells/mm^3).

physchem = type: physicochemical
Protocol: Rifalazil is a highly lipophilic molecule having limited solubility in water at physiological pH (approximately 200 ng/mL). Evidence of the highly lipophilic behavior of the molecule is illustrated in the partition coefficient (n-octanol:water) of between 70, 569 and over 900,000 in different experiments (Log P range; 4.9-5.9).

[3] = Non-clinical oral pharmacokinetics in the rat; type: in vivo; conditions: for bioavailability: rat, plasma, po
Protocol: In rats and dogs, the Vdβ/F following oral administration was 40-80 L/kg. […] The highest mean Cmax observed was in the wall of the GI tract and occurred approximately 1 hour post-dose. […] A large tissue compartment of rifalazil is considered important for efficacy against Chlamydia given the intracellular nature of Chlamydia infection.

[4] = Phase 1 pharmacokinetic analyses by gender, single or multiple doses 2.5-50 mg; type: in vivo, human
Protocol: There were no significant differences between males and females for AUC0-∞ when data were normalized to 1 mg/kg following single doses of 2.5 to 50 mg rifalazil (see FIG. 3 and FIG. 4).
The Vdβ/F was large indicating extensive distribution in the body. […] The mean minimum plasma concentrations (Cmin) of rifalazil over time during 5 days of dosing with 2.5 and 5 mg rifalazil increased from Days 2-6 in both males and females at both dose levels.

C. pneumoniae = test: Potency against C. pneumoniae compared with roxithromycin
Excerpt: The use of rifalazil in the treatment of PAOD is supported by both preclinical and clinical lines of evidence.

C. trachomatis = test: Cell culture protection against re-infection with C. trachomatis; type: cell-based; conditions: single doses in cell culture
[5] = Single 25 mg rifalazil with Ortho-Novum 1/35 in post-menopausal female volunteers, adverse events; conditions: human, in vivo
Protocol: In another study, a single oral dose of 25 mg rifalazil was administered and its effects on ethinyl estradiol and norethindrone levels administered as the contraceptive Ortho-Novum 1/35® in 16 healthy post-menopausal female volunteers for 14 days was determined. The incidence of AEs was similar between the two treatment periods, with 13 (93%) of the 14 subjects included in the safety population experiencing at least 1 AE during dosing with Ortho-Novum 1/35 alone and 12 (86%) during dosing with rifalazil and Ortho-Novum 1/35. Overall, 4 (29%) subjects experienced at least 1 AE considered by the Investigator to be at least possibly related to rifalazil. The most commonly reported rifalazil-related events were nausea (4 subjects, 29%); headache (3 subjects, 21%); and loose stools, feeling hot, rigors, and myalgia (2 subjects each, 14%).
The majority of AEs were of mild or moderate intensity. One subject experienced myalgia of severe intensity during dosing with rifalazil and Ortho-Novum 1/35 that was assessed as probably related to study medication. […] Two subjects withdrew from the study because of AEs during the Ortho-Novum 1/35 only dosing period; neither subject received rifalazil.

[6] = Healthy volunteers, 25 or 50 mg once a week for 4 weeks, adverse events; type: in vivo, human
Protocol: In one study, healthy volunteers received 25 or 50 mg once a week for 4 weeks. The overall incidence of AEs was 33% after the first weekly dose, 12% after the second and third weekly dose, and 0% at the fourth weekly dose. No subject discontinued the study due to AEs, and no serious AEs were reported in this study. The predominant AEs reported in the rifalazil group but not in the placebo group included: back pain (2/6. 33%), chills (3/6, 50%), neck pain (1/6. 17%), insomnia, and a range of gastrointestinal (GI) disturbances such as anorexia, nausea, thirst and vomiting (all in 1/6 patients, 17%).
The lowest individual value for subjects receiving 25 mg/week was 2.2×10^3/mm^3 (Day 25), and for 50-mg/week subjects, 2.3×10^3/mm^3 (Day 11). All values returned to baseline within 2 weeks of cessation of dosing. […] The above normal values at 50 mg/week occurred in 1 subject, and were of moderate Grade 2 severity during the interval from approximately Day 15 to Day 78. […] All values returned to baseline levels within 2 weeks of cessation of dosing.
The phenomenon of accommodation or tolerance with repeat weekly dosing of rifalazil became evident during the course of the study for both the 25-mg and 50-mg doses. In the 25-mg dosage group, the peak incidence of AEs occurred in the first week and decreased substantially over the remaining weeks.

[7] = Degradation to 25-desacetyl derivative under acidic and basic conditions; type: physicochemical
Excerpt: Rifalazil degrades to a 25-desacetyl derivative under both acidic and basic conditions. Typical of ester hydrolysis, the degradation in highly alkaline solutions is rapid while at an acidic pH, e.g., pH 1, the degradation at room temperature is slower, approximately 6% in one hour.

With `CO[C@H]1/C=C/O[C@@]2(C)Oc3c(C)c(O)c4c(=O)c(c5oc6cc(N7CCN(CC(C)C)CC7)cc(O)c6nc-5c4c3C2=O)NC(=O)/C(C)=C\C=C\[C@H](C)[C@H](O)[C@@H](C)[C@@H](O)[C@@H](C)[C@H](OC(C)=O)[C@@H]1C` [rifalazil, 3′-hydroxy-5′-(4-isobutyl-1-piperazinyl) benzoxazinorifamycin] as the compound, how does the Tmax ([1]; male, human, plasma, oral, 25 mg) read?
The Tmax was roughly 3 h.

And the “absorption (Cmax and AUC) fasted versus fed” value ([1]; overnight fast compared with 30% or 60% fat meal, single 25 mg)?
The value was “lower”.

What about the headache ([2]; 30 mg single oral dose (3/5 subjects)) of the same compound?
The headache was 38%.

And the “patients reporting AEs” value ([2]; 30 mg single oral dose (5/8))?
Its value is “Sixty-two”.

And the “WBC count nadir values, one subject” value ([2]; 30 mg single oral dose, Days 3 and 7, baseline 4.3×10^3)?
The value was 3.8×10^3 cells/mm^3.

And the “partition coefficient (n-octanol:water)” value (physchem)?
The value was 70, 569-900,000.

And the logP (physchem; n-octanol:water, different experiments, read-out: Log P range)?
The logP was 4.9 to 5.9.

What about the solubility (physchem; pH 7.4, aqueous buffer, physiological pH, read-out: solubility in water) of the same compound?
The solubility was roughly 0.2 µg/mL (≈ 0.213 µM).

What about the bioavailability ([3]; female rats, 3 mg/kg) of the same compound?
The bioavailability was 28.9%.

And the bioavailability ([3]; female rats, 100 mg/kg)?
The bioavailability was 6.1%.

And the bioavailability ([3]; male rats, 3 mg/kg)?
Its bioavailability is 43.5%.

And the bioavailability ([3]; male rats, 100 mg/kg)?
Its bioavailability is 11.7%.

And the Vdβ/F ([3]; rats, oral administration)?
Its Vdβ/F is 40 to 80 L/kg.

And the steady state ([4]; after 5 days of dosing with 2.5 and 5 mg)?
The steady state was “does not appear that steady state was reached”.

And the half-life ([4]; both sexes, human, plasma, oral, following single doses, read-out: mean elimination t1/2)?
The half-life was 100 to 150 h.

And the half-life ([4]; both sexes, human, plasma, oral, multiple dosing, up to 5 days, read-out: mean elimination t1/2)?
The half-life was 87 to 174 h.

And the half-life ([4]; both sexes, human, plasma, oral, read-out: t1/2 (converted))?
Its half-life is roughly 100 h.

What about the Tmax ([4]; both sexes, human, plasma, oral, single or multiple doses 2.5-50 mg, males and females, read-out: mean time to maximum concentration (Tmax)) of the same compound?
Its Tmax is 4 to 6 h.

What about the Vdβ/F ([4]; in vivo) of the same compound?
Its Vdβ/F is “large”.

And the “exposure (mean Cmax and AUC0-∞) as a function of dose” value ([4]; males and females, 2.5 to 50 mg, increase not dose proportional)?
Its value is “increased with rifalazil dose”.

And the “potency against C. pneumoniae relative to roxithromycin” value (C. pneumoniae)?
Its value is 2000 times.

And the “duration of protective effect against re-infection with C. trachomatis” value (C. trachomatis)?
Its value is “up to 12 days”.

What about the “subjects experiencing at least 1 AE” value ([5]; female) of the same compound?
Its value is 86%.

What about the “deaths or other serious AEs” value [5] of the same compound?
The value was “No deaths or other serious AEs”.

What about the “subjects with transient Grade 3 decreases in absolute lymphocyte count (ALC<0.5×10^3/mm^3)” value [5] of the same compound?
Its value is “two”.

What about the “subjects with low WBC counts” value ([6]; 25 mg/week) of the same compound?
The value was “three of six”.

And the tolerability ([6]; 25 mg/week)?
Its tolerability is “fairly well tolerated”.

And the “lowest individual WBC value” ([6]; 25 mg/week, Day 25)?
Its value is 2.2×10^3 /mm^3.

And the “subjects with low WBC counts” value ([6]; 50 mg/week)?
Its value is 6 of 8.

What about the tolerability ([6]; 50 mg/week) of the same compound?
Its tolerability is “not considered well tolerated”.

What about the “lowest individual WBC value” ([6]; 50 mg/week, Day 11) of the same compound?
Its value is 2.3×10^3 /mm^3.

What about the “mean AST and ALT values” ([6]; 50 mg/week, not in the 25 mg/week group) of the same compound?
Its value is “transient increase”.

What about the “subjects with Grade 4 lymphocyte toxicity” value ([6]; 25-mg/week) of the same compound?
The value was 1 subject.

What about the “time for WBC values to return to baseline after cessation of dosing” value ([6]; 25 and 50 mg/week) of the same compound?
The value was no more than 2 weeks.

And the “subjects with Grade 4 lymphocyte toxicity” value ([6]; 50-mg/week)?
The value was 3 subjects.

And the “overall incidence of AEs” value ([6]; after the first weekly dose)?
Its value is 33%.

What about the “overall incidence of AEs” value ([6]; after the second and third weekly dose) of the same compound?
Its value is 12%.

What about the “overall incidence of AEs” value ([6]; at the fourth weekly dose) of the same compound?
The value was 0%.

And the neck pain ([6]; rifalazil group (1/6))?
The neck pain was 17%.

What about the back pain ([6]; rifalazil group (2/6)) of the same compound?
The back pain was 33%.

And the chills ([6]; rifalazil group (3/6))?
The chills was 50%.

What about the “insomnia, anorexia, nausea, thirst and vomiting (each)” value ([6]; rifalazil group (all in 1/6 patients)) of the same compound?
Its value is 17%.

What about the asthenia ([6]; rifalazil-treated groups) of the same compound?
The asthenia was 33%.

What about the dizziness ([6]; rifalazil-treated groups) of the same compound?
Its dizziness is 50%.

What about the fever ([6]; rifalazil-treated groups) of the same compound?
Its fever is 67%.

What about the headache ([6]; rifalazil-treated groups) of the same compound?
Its headache is 67%.

And the pain ([6]; rifalazil-treated groups)?
The pain was 50%.

What about the “degradation in highly alkaline solutions” value ([7]; highly alkaline solutions) of the same compound?
The value was “rapid”.

And the “degradation to 25-desacetyl derivative” value ([7]; pH 1, room temperature, in one hour)?
Its value is “approximately 6%”.
